Among the test systems are BT-549 breast; NCI/ADR-RES ovarian; OVCAR-5 ovarian; SF-539 CNS; SNB-75 CNS; HCT-116 colon; HOP-62 NSCLC; NCI-H460 lung; U251 CNS; SK-MEL-2 melanoma.
What all share (experiment): NCI tumour cell line growth inhibition, 48 h

SMILES strings stand for the structures.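 Growth conditions: 96-well plates. Treatment: test compound, 48 hours, 5 concentrations. Analysis: linear interpolation between bracketing concentrations; unreached endpoints set to highest concentration. The concentration for 50% growth inhibition is given as GI50. TGI denotes the concentration required for complete inhibition of growth.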 A value given as a limit tells only on which side of the number the result lay.

In the case of `CCCC[N+](CCCC)=c1ccc2nc3c(C)cc(N(CC)CC)cc3sc-2c1`, the GI50 in the experiment on BT-549 breast was 0.225 µM; with NCI/ADR-RES ovarian, 0.327 µM; in the experiment with OVCAR-5 ovarian it was 0.349 µM; in the experiment on SF-539 CNS it was 0.192 µM; in the experiment with SNB-75 CNS it was 0.229 µM. Also, the TGI in the experiment with BT-549 breast was determined as 1.73 µM; with NCI/ADR-RES ovarian, 1.84 µM; in the experiment with OVCAR-5 ovarian, 1.61 µM; in the experiment with SF-539 CNS, 1.14 µM; in the experiment on SNB-75 CNS, 1.1 µM.
Take `O=C1C2=Nc3ccccc3C(O)N2c2ccccc21` (stereo not given): the TGI in the experiment with BT-549 breast, with HCT-116 colon, in the experiment on HOP-62 NSCLC, in the experiment on NCI-H460 lung, with NCI/ADR-RES ovarian and with OVCAR-5 ovarian was over 100 µM in each case. For the same molecule, the TGI was over 100 µM in the experiment on SF-539 CNS, 90.4 µM in the experiment on SNB-75 CNS and over 100 µM with U251 CNS.
For `CCOc1cc2c(cc1O)/C(=N\O)C[C@@H]1[C@@H]2CC[C@]2(C)[C@@H](O)CC[C@@H]12`, the GI50 with BT-549 breast is 0.0864 µM; with SF-539 CNS, 0.0269 µM; with SNB-75 CNS, 0.00232 µM; with U251 CNS, 0.0324 µM. Besides, the TGI is 22.5 µM in the experiment with BT-549 breast; over 100 µM in the experiment on HOP-62 NSCLC; 1.47 µM in the experiment with NCI-H460 lung; over 100 µM in the experiment with NCI/ADR-RES ovarian; over 100 µM in the experiment with OVCAR-5 ovarian; 55.6 µM in the experiment on SK-MEL-2 melanoma. The TGI in the experiment with SNB-75 CNS is 0.0166 µM; in the experiment on U251 CNS, over 100 µM.
Regarding `C/C1=C/C2=CC(C)C[C@@H]2C(=O)[C@]2(C)C(=O)CC(C)(C)[C@H]2CC1=O` (stereo not given in full), the TGI with BT-549 breast, in the experiment with HCT-116 colon, in the experiment with NCI-H460 lung, in the experiment with NCI/ADR-RES ovarian, in the experiment with OVCAR-5 ovarian and with SF-539 CNS was over 50 µM each time. Further, the TGI in the experiment on SK-MEL-2 melanoma, in the experiment on SNB-75 CNS and in the experiment on U251 CNS was over 50 µM in each case.
On to `C=C(C)C1CC2(C)C(C)CC(OC(=O)/C(C)=C\C)CC2C(OC(=O)/C(C)=C\C)C1O` (stereo not given), for which the TGI with BT-549 breast, in the experiment on HCT-116 colon, in the experiment on NCI-H460 lung, in the experiment on NCI/ADR-RES ovarian, in the experiment with OVCAR-5 ovarian and in the experiment on SF-539 CNS was over 100 µM in each case. Also, the TGI with SK-MEL-2 melanoma, in the experiment with SNB-75 CNS and in the experiment with U251 CNS was over 100 µM throughout.
`OCC1OC(OCC(O)C(O)C(O)C(/C=N/Nc2ccccc2)=N/Nc2ccccc2)C(O)C(O)C1O` (stereo not given): the TGI in the experiment on BT-549 breast, in the experiment on HCT-116 colon, in the experiment on HOP-62 NSCLC, in the experiment with NCI-H460 lung, with NCI/ADR-RES ovarian and in the experiment on OVCAR-5 ovarian was over 100 µM in each case. Moreover, the TGI in the experiment with SF-539 CNS, with SNB-75 CNS and in the experiment with U251 CNS was over 100 µM in each case.
`CC1CCN(CCCCCOc2ccc3oc4cc(Cl)ccc4c(=O)c3c2)CC1`: the GI50 in the experiment with BT-549 breast was 6.54 µM; in the experiment on HCT-116 colon, 2.42 µM; with NCI-H460 lung, 6.63 µM; in the experiment with NCI/ADR-RES ovarian it was 8.14 µM; in the experiment on OVCAR-5 ovarian it was 6.63 µM; with SF-539 CNS, 5.9 µM. The results for the GI50 with SK-MEL-2 melanoma, with SNB-75 CNS and in the experiment on U251 CNS were 9.3 µM, 6.59 µM and 5.69 µM, respectively. The TGI was 13.1 µM with BT-549 breast; 7.86 µM in the experiment on HCT-116 colon; 13.9 µM in the experiment with NCI-H460 lung; 21.8 µM in the experiment on NCI/ADR-RES ovarian; 13.5 µM in the experiment with OVCAR-5 ovarian; 12.3 µM in the experiment with SF-539 CNS. Besides, the TGI is 17.5 µM in the experiment on SK-MEL-2 melanoma, 13 µM in the experiment on SNB-75 CNS and 12.4 µM in the experiment on U251 CNS.
Consider `COC(=O)c1ccc(NC(=O)Nc2ccc3oc(=O)c4ccccc4c3c2)cc1`, for which the GI50 was 28.1 µM with BT-549 breast; 32.4 µM in the experiment with HCT-116 colon; 17.8 µM in the experiment on HOP-62 NSCLC; 41.6 µM with NCI-H460 lung; 41.7 µM in the experiment with NCI/ADR-RES ovarian; 97.7 µM in the experiment on OVCAR-5 ovarian. Also, the figures for the GI50 in the experiment with SF-539 CNS, in the experiment on SNB-75 CNS and in the experiment with U251 CNS were 62.5 µM, 32 µM and 30.9 µM, respectively. The TGI in the experiment with BT-549 breast was over 100 µM; in the experiment with HCT-116 colon it was over 100 µM; in the experiment with HOP-62 NSCLC it was 39.6 µM; in the experiment with NCI-H460 lung, over 100 µM; in the experiment on NCI/ADR-RES ovarian it was over 100 µM; with OVCAR-5 ovarian, over 100 µM. The values for the TGI in the experiment on SF-539 CNS, with SNB-75 CNS and with U251 CNS were over 100 µM, 96.2 µM and over 100 µM, respectively.
With `COc1cccc2c1-c1c(c3ccc([N+](=O)[O-])cc3c(=O)n1CCCCl)C2=O`, the GI50 with BT-549 breast was 17.1 µM; with HCT-116 colon, 2.48 µM; with HOP-62 NSCLC it was 5.46 µM; in the experiment on NCI-H460 lung it was 0.972 µM; in the experiment on NCI/ADR-RES ovarian, over 50 µM; with OVCAR-5 ovarian, over 50 µM. Besides, the figures for the GI50 with SK-MEL-2 melanoma and with SNB-75 CNS were 48.8 µM and 11.6 µM, respectively. The TGI in the experiment on BT-549 breast was over 50 µM; in the experiment with HCT-116 colon it was over 50 µM; with HOP-62 NSCLC, 15.9 µM; in the experiment on NCI-H460 lung, over 50 µM; in the experiment with NCI/ADR-RES ovarian it was over 50 µM; in the experiment on OVCAR-5 ovarian, over 50 µM. For the same molecule, the TGI in the experiment on SK-MEL-2 melanoma is over 50 µM; in the experiment on SNB-75 CNS it was 32.3 µM.

For the origin of these results see PubChem BioAssay (NCI).
